{"source": "patent US20240269125A1", "about": "“METHODS OF TREATING CORONAVIRUS INFECTIONS BY CO-ADMINISTERING AN FKBP LIGAND AND AN ANTIVIRAL AGENT” (priority 2020, published 2024)", "key": {"[1]": {"assay": "in vitro", "details": "African green monkey"}, "[2]": {"test_system": "SARS CoV-2 (USA-WA1/2020)", "assay": "organism not typed", "assay_type": "cell-based"}, "[3]": {"test_system": "SARS COV-2 (USA_WA1/2020)", "assay_type": "cell-based", "details": "Example 10; remdesivir alone up to 6,666.667 nM; FK1706 alone up to 60,000 nM"}, "[4]": {"test_system": "Vero E6 cells", "details": "Table 1, Example 6; 50% cell death in absence of virus, day 4"}, "[5]": {"test_system": "SARS CoV-2 (USA-WA1/2020)", "assay": "organism not typed", "assay_type": "cell-based", "details": "for reduction in SARS COV-2 virus: Example 6"}, "[6]": {"assay": "in vitro", "details": "African green monkey, TC50, Table 1, Example 6"}, "[7]": {"details": "TC50, Table 2, Example 7, 50% cell death in absence of virus, day 3"}, "[8]": {"details": "TC50, Table 4, Example 9, single conc. (sub-therapeutic antiviral alone)"}, "[9]": {"details": "Example 9, antiviral alone at sub-therapeutic level (molnupiravir 0.3 μM; remdesivir 3 μM)"}}, "note": "Like-named read-outs stand apart in the source and are kept apart here.", "data": [{"smiles": "O=C(C(=O)N1CCCC[C@H]1C(=O)NCCCc1ccccc1)c1ccccc1", "note": "[ElteN378]", "values": [{"measurement": "CC50", "setting": "[1]; [7]", "value": "> 30", "unit": "µM"}, {"measurement": "reduction in SARS COV-2 virus", "setting": "[2]; Example 7, ElteN378 0.12-30 μM, alone or co-administered with fixed antiviral", "value": "0-7%"}, {"measurement": "EC50", "setting": "[2]; Vero C1008, 72 h, Table 2, Example 7, Vero E6, concentration inhibiting CPE by 50%, day 3, read-out: EC50", "value": "> 30", "unit": "µM"}]}, {"smiles": "CO[C@H]1C[C@@H](C)C/C(C)=C/[C@@H](CC(C)=O)C(=O)C[C@H](O)[C@@H](C)C(/C(C)=C/[C@@H]2CC[C@@H](O)[C@H](OC)C2)OC(=O)C2CCCCC2C(=O)C(=O)[C@]2(O)O[C@H]1[C@@H](OC)C[C@H]2C", "note": "(some centres unmarked) [FK1706]", "values": [{"measurement": "antiviral activity as single agent", "setting": "[3]", "value": "no significant antiviral activity"}, {"measurement": "CC50", "setting": "[1]; TC50, Table 3, Example 8, day 3", "value": "> 90", "unit": "µM"}, {"measurement": "reduction in SARS COV-2 virus", "setting": "[2]; Example 8, FK1706 alone 2.85-90 μM", "value": "0-10%"}, {"measurement": "EC50", "setting": "[2]; Vero C1008, 72 h, Table 3, Example 8, Vero E6, day 3, read-out: EC50", "value": "> 90", "unit": "µM"}, {"measurement": "TC50", "setting": "[4]", "value": ">90", "unit": "µM"}, {"measurement": "reduction in SARS COV-2 virus", "setting": "[5]; FK1706 11-90 μM, alone or co-administered with fixed antiviral", "value": "0-7%"}, {"measurement": "EC50", "setting": "[5]; Vero C1008, 96 h, Table 1, Example 6, Vero E6, concentration inhibiting CPE by 50%, day 4, read-out: EC50", "value": "> 90", "unit": "µM"}]}, {"smiles": "CCC(C)(C)C(=O)C(=O)N1CCC[C@H]1C(=O)O", "note": "[GPI-1485]", "values": [{"measurement": "CC50", "setting": "[1]; TC50, Table 4, Example 9, day 3", "value": "> 320", "unit": "µM"}, {"measurement": "reduction in SARS COV-2 virus", "setting": "[2]; Example 9, GPI-1485 40-320 μM, alone or co-administered with fixed antiviral", "value": "0-6%"}, {"measurement": "EC50", "setting": "[2]; Vero C1008, 72 h, Table 4, Example 9, Vero E6, day 3", "value": "> 320", "unit": "µM"}]}, {"smiles": "CC(C)C(=O)OC[C@H]1O[C@@H](n2ccc(=NO)[nH]c2=O)[C@H](O)[C@@H]1O", "note": "[Molnupiravir, ((2R,3S,4R,5R)-3,4-dihydroxy-5-(4-(hydroxyimino)-2-oxo-3,4-dihydropyrimidin-1(2H)-yl)tetrahydrofuran-2-yl)methyl isobutyrate]", "values": [{"measurement": "CC50", "setting": "[1]; TC50, Table 3, Example 8, single conc. (0.3 μM molnupiravir alone)", "value": "> 0.3", "unit": "µM"}, {"measurement": "CC50", "setting": "[1]; [8]", "value": "> 0.3", "unit": "µM"}, {"measurement": "reduction in SARS COV-2 virus", "setting": "[2]; Example 8, molnupiravir alone 0.3 μM", "value": "4-13%"}, {"measurement": "reduction in SARS COV-2 virus", "setting": "[2]; [9]", "value": "4-13%"}, {"measurement": "EC50", "setting": "[2]; Table 3, Example 8, single conc. (0.3 μM molnupiravir alone), read-out: EC50", "value": "> 0.3", "unit": "µM"}, {"measurement": "EC50", "setting": "[2]; Table 4, Example 9, single conc. (sub-therapeutic antiviral alone), read-out: EC50", "value": "> 0.3", "unit": "µM"}]}, {"smiles": "CCC(CC)COC(=O)[C@H](C)N[P@](=O)(OC[C@H]1O[C@@](C#N)(c2ccc3c(N)ncnn23)[C@H](O)[C@@H]1O)Oc1ccccc1", "note": "[Remdesivir]", "values": [{"measurement": "CC50", "setting": "[6]; 50% cell death in absence of virus, day 4", "value": "> 100", "unit": "µM"}, {"measurement": "CC50", "setting": "[6]; single conc. (sub-therapeutic antiviral alone)", "value": "> 3", "unit": "µM"}, {"measurement": "CC50", "setting": "[1]; [7]", "value": "> 100", "unit": "µM"}, {"measurement": "CC50", "setting": "[1]; TC50, Table 2, Example 7, single conc. (sub-therapeutic antiviral alone)", "value": "> 3", "unit": "µM"}, {"measurement": "CC50", "setting": "[1]; [8]", "value": "> 0.3", "unit": "µM"}, {"measurement": "reduction in SARS COV-2 virus", "setting": "[2]; Example 7, antiviral alone at sub-therapeutic level (remdesivir 3 μM; M128533 1 μg/mL)", "value": "2-19%"}, {"measurement": "reduction in SARS COV-2 virus", "setting": "[2]; [9]", "value": "20-30%"}, {"measurement": "EC50", "setting": "[2]; Table 2, Example 7, single conc. (sub-therapeutic antiviral alone)", "value": "> 3", "unit": "µM"}, {"measurement": "EC50", "setting": "[2]; Table 4, Example 9, single conc. (sub-therapeutic antiviral alone)", "value": "> 0.3", "unit": "µM"}, {"measurement": "EC50", "setting": "[2]; Vero C1008, 72 h, Table 2, Example 7, Vero E6, concentration inhibiting CPE by 50%, day 3", "value": 7.31, "unit": "µM"}, {"measurement": "EC50", "setting": "[5]", "value": "> 3", "unit": "µM"}, {"measurement": "reduction in SARS COV-2 virus", "setting": "[5]; antiviral alone at sub-therapeutic level (remdesivir 3 μM; M128533 1 μg/mL)", "value": "5-14%"}, {"measurement": "EC50", "setting": "[5]; Vero C1008, 96 h", "value": 3.63, "unit": "µM"}]}]}
